# Read-outs that look alike come from different tables or passages of the source. Marks after values point to notes of the source that are not given here.
# Assays:
# [1] = tested on: postmenopausal women with osteoporosis; settings: in vivo
# Experimental: (§2) Safety evaluations performed in the ACTIVE trial included physical examinations, vital signs, 12-lead electrocardiograms, or ECGs, clinical laboratory tests and monitoring, and recording of adverse events. Specific safety assessments included pre-dose and post-dose (four hours) determination of serum calcium, determination of creatinine clearance, post-dose ECG assessments at selected visits, and assessments of postural hypotension (60 minutes post-dose) at selected clinic visits.
# (§3) The ACTIVE trial also evaluated several potential safety measures, including blood calcium levels, orthostatic hypotension, nausea, dizziness, and injection-site reactions.
# [2] = tested on: postmenopausal women with osteoporosis; test: ACTIVE trial: adverse events; settings: 18-month ACTIVE trial
# Experimental: as §2, §3
# [3] = tested on: postmenopausal women with osteoporosis; settings: in vivo; remark: listed apart in the source
# [4] = tested on: postmenopausal women with osteoporosis; test: Phase 2 trial 24-week extension (48 weeks): BMD and tolerability; settings: 20 μg daily SC
# [5] = tested on: postmenopausal women with osteoporosis; test: Phase 2 dose-finding trial: 24-week BMD by DXA; type: in vivo, human; settings: 24 weeks; 20 μg daily SC
# Text: Healthy postmenopausal women between the ages of 55 to 85 (based on a 5-year history of amenorrhea and an elevated serum level of FSH) were enrolled in the study if they met one of the following the following definitions of osteoporosis: • 1) DXA-derived BMD T-score≤−2.5 at the lumbar spine or femoral neck or total hip. • 2) DXA-derived BMD T-score ≤−2.0 with a history of a prior low trauma forearm, humerus, vertebral, sacral, pelvic, hip, femoral, or tibial fracture within the past five years. • 3) DXA-derived BMD T-score ≤−2.0 with an additional osteoporosis risk factor such as age >65 years or strong maternal history of osteoporosis (defined as a fracture related to osteoporosis or osteoporosis itself determined by BMD criteria).
# Dual X-ray absorptiometry: DXA scans were obtained at each local site and then sent to a central imaging reader (BioClinica Inc. Newton, PA) where they underwent a quality control review and then analyzed according to each manufacturers guidelines. Scans performed during the treatment period on the same instrument used for the baseline scan were acquired. Each study site performed Instrument Quality Control over time (instrument standardization and phantom calibration) that was reviewed by the central reader.
# [6] = tested on: postmenopausal women with osteoporosis; test: Phase 2 trial: safety, serum calcium, antibody formation; settings: 24 weeks; 20 μg daily SC
# [7] = tested on: postmenopausal women with osteoporosis; test: ACTIVE trial: BMD of lumbar spine, total hip, femoral neck by DXA; type: in vivo, human
# Experimental: BMD and bone turnover biomarkers (CTX and P1NP) were also evaluated in all patient groups to compare the effects of abaloparatide versus teriparatide.
# (§1) As set forth in the ACTIVE protocol, the primary efficacy endpoint was the number of patients treated with abaloparatide with incident vertebral fractures at the end of treatment as compared to those who received placebo. The pre-specified secondary efficacy parameters included, among other endpoints, reduction in the incidence/risk of non-vertebral fractures; changes in BMD of the spine, hip, and femoral neck from baseline to end of treatment as assessed by DXA and as compared to teriparatide; and the number of hypercalcemic events in abaloparatide treated patients when compared to teriparatide at end of treatment.
# Comparative analyses of abaloparatide versus teriparatide were completed on the following BMD secondary endpoints using a Mixed-Effect Model for Repeated Measures (MMRM) method, shown in Table 4 below:
# Comparative analyses of the PTHrP analogues abaloparatide and teriparatide were completed on the following BMD secondary endpoints using an ANCOVA approach, shown in Table 5 below: […]
# [8] = tested on: postmenopausal women with osteoporosis; test: ACTIVE phase 3 trial: fracture rates and fracture risk over 18 months; type: in vivo, human
# Experimental: The ACTIVE phase 3 fracture prevention trial was conducted for abaloparatide in postmenopausal women with osteoporosis who were otherwise healthy. The enrolled subjects were treated with 80 micrograms (μg) of abaloparatide, a matching placebo, or the approved daily dose of 20 μg of teriparatide for 18 months. The ACTIVE trial evaluated fracture rates, fracture risks, BMD, and bone turnover biomarkers (e.g., CTX and P1NP) in all patient groups.
# Fracture risk reduction and hazard ratio (HR) were derived from Kaplan-Meier (KM) curve.
# The ACTIVE pivotal Phase 3 fracture prevention trial for the PTHrP analogue abaloparatide, Study BA058-05-003 (see ClinicalTrials.gov), was a randomized, double-blind, placebo-controlled trial in postmenopausal osteoporotic women randomized to receive daily doses of one of the following for 18 months: 80 micrograms (μg) of abaloparatide; a matching placebo; or the approved daily dose of 20 μg of teriparatide. Treatment with abaloparatide at a daily dose of 80 μg or placebo remained blinded to all parties throughout the study. Teriparatide used was a proprietary prefilled drug and device combination that could not be repackaged. Therefore, its identity could not be blinded to treating physicians and patients once use began. Study medication was self-administered daily by subcutaneous injection for a maximum of 18 months. All enrolled patients also received calcium and vitamin D supplementation from the time of enrollment until the end of the treatment period. It was recommended to patients that they also continue these supplements through the one-month follow-up period.
# The study enrolled otherwise healthy ambulatory women aged 49 to 86 (inclusive) who had been postmenopausal for at least five years, met the study entry criteria, and had provided written informed consent. […] All patients were to be in good general health as determined by medical history, physical examination (including vital signs), and clinical laboratory testing. This study population contained a patient population reflective of the type of severe osteoporosis patients that specialists would be expected to treat in their practices.
# as §1
structure (smiles),measurement,setting,value
"CC[C@H](C)[C@H](NC(=O)[C@H](CO)NC(=O)[C@H](CCCCN)NC(=O)CNC(=O)[C@H](CCCCN)NC(=O)[C@H](CC(=O)O)NC(=O)[C@H](Cc1cnc[nH]1)NC(=O)[C@H](CC(C)C)NC(=O)[C@H](CC(C)C)NC(=O)[C@H](CCC(N)=O)NC(=O)[C@H](Cc1cnc[nH]1)NC(=O)[C@H](CCC(=O)O)NC(=O)[C@H](CO)NC(=O)[C@@H](NC(=O)[C@H](C)N)C(C)C)C(=O)N[C@@H](CCC(N)=O)C(=O)N[C@@H](CC(=O)O)C(=O)N[C@@H](CC(C)C)C(=O)N[C@@H](CCCNC(=N)N)C(=O)N[C@@H](CCCNC(=N)N)C(=O)N[C@@H](CCCNC(=N)N)C(=O)N[C@@H](CCC(=O)O)C(=O)N[C@@H](CC(C)C)C(=O)N[C@@H](CC(C)C)C(=O)N[C@@H](CCC(=O)O)C(=O)N[C@@H](CCCCN)C(=O)N[C@@H](CC(C)C)C(=O)N[C@@H](CC(C)C)C(=O)NC(C)(C)C(=O)N[C@@H](CCCCN)C(=O)N[C@@H](CC(C)C)C(=O)N[C@@H](Cc1cnc[nH]1)C(=O)N[C@H](C(=O)N[C@@H](C)C(N)=O)[C@@H](C)O [abaloparatide, [Glu^22,25, Leu^23,28,31, Aib^29, Lys^26,30]hpTHrP(1-34)NH2]",AE: Arthralgia,[1],8.6%
same,AE: Back Pain,[1],8.5%
same,AE: Constipation,[1],4.5%
same,AE: Dizziness,[1],10.0%‡
same,AE: Headache,[1],7.5%
same,AE: Hypercalcemia (serum albumin-corrected calcium value ≥ 10.7 mg/dL),[1],3.41%^†
same,AE: Hypertension,[1],7.2%
same,AE: Nasopharyngitis,[1],5.8%
same,AE: Nausea,[1],8.3%‡
same,AE: Pain in extremity,[1],4.9%
same,AE: Palpitations,[1],5.1%‡
same,AE: Upper respiratory tract infection,[1],8.3%
same,AE: Urinary tract infection,[1],5.2%
same,AE: Influenza,[2],6.3%
same,anti-abaloparatide antibody titer in positive patients,[3],≤ 1:20
"CC[C@H](C)[C@H](NC(=O)[C@H](CCC(=O)O)NC(=O)[C@H](CO)NC(=O)[C@@H](NC(=O)[C@@H](N)CO)C(C)C)C(=O)N[C@@H](CCC(N)=O)C(=O)N[C@@H](CC(C)C)C(=O)N[C@@H](CCSC)C(=O)N[C@@H](Cc1cnc[nH]1)C(=O)N[C@@H](CC(N)=O)C(=O)N[C@@H](CC(C)C)C(=O)NCC(=O)N[C@@H](CCCCN)C(=O)N[C@@H](Cc1cnc[nH]1)C(=O)N[C@@H](CC(C)C)C(=O)N[C@@H](CC(N)=O)C(=O)N[C@@H](CO)C(=O)N[C@@H](CCSC)C(=O)N[C@@H](CCC(=O)O)C(=O)N[C@@H](CCCN=C(N)N)C(=O)N[C@H](C(=O)N[C@@H](CCC(=O)O)C(=O)N[C@@H](Cc1c[nH]c2ccccc12)C(=O)N[C@@H](CC(C)C)C(=O)N[C@@H](CCCN=C(N)N)C(=O)N[C@@H](CCCCN)C(=O)N[C@@H](CCCCN)C(=O)N[C@@H](CC(C)C)C(=O)N[C@@H](CCC(N)=O)C(=O)N[C@@H](CC(=O)O)C(=O)N[C@H](C(=O)N[C@@H](Cc1cnc[nH]1)C(=O)N[C@@H](CC(N)=O)C(=O)N[C@@H](Cc1ccccc1)C(=O)O)C(C)C)C(C)C [teriparatide, hPTH(1-34)]",femoral neck BMD increase,[4]; 48 weeks,2.2%
same,lumbar spine BMD increase,[4]; 48 weeks,8.6%
same,total hip BMD increase,[4]; 48 weeks,1.3%
same,treatment-related TEAEs,[4]; extension study,21%
same,AE: Arthralgia,[2],8.6%
same,AE: Back Pain,[2],7.2%‡
same,AE: Constipation,[2],4.2%
same,AE: Dizziness,[2],7.3%
same,AE: Headache,[2],6.2%
same,AE: Hypercalciuria,[2],12.5%‡
same,AE: Hypertension,[2],5.0%
same,AE: Influenza,[2],4.2%
same,AE: Nasopharyngitis,[2],6.5%
same,AE: Nausea,[2],5.1%‡
same,AE: Pain in extremity,[2],5.1%
same,AE: Palpitations,[2],1.6%‡
same,AE: Upper respiratory tract infection,[2],8.9%
same,AE: Urinary tract infection,[2],5.0%
same,femoral neck BMD increase (±SD),[5],1.1±4.6%
same,total hip BMD increase (±SD),[5],0.5±3.9%
same,incidence of dizziness,[6],4%
same,"Mean Percent Change In BMD From Baseline (ANCOVA), Femoral Neck",[7]; 6 mo,0.80%*
same,"Mean Percent Change in BMD From Baseline (MMRM), Femoral Neck",[7]; 6 mo,0.87%*
same,"Mean Percent Change In BMD From Baseline (ANCOVA), Lumbar Spine",[7]; 12 mo,7.40%*
same,subjects with BMD increases of >3% at all three sites,[7]; 12 months,19.8%
same,subjects with BMD increases of >3% at all three sites,[7]; 18 months,32.0%
same,"subjects with increased BMD of >3% at all three sites (lumbar spine, total hip, femoral neck)",[7]; month 6,6.5%
same,"hazard ratio, incident clinical fractures, as compared to placebo",[8],0.71
same,"hazard ratio, non-vertebral fractures, as compared to placebo",[8],0.72
same,"fracture rate, non-vertebral fractures (rate given with hazard ratio)",[8]; placebo group 4.7%,3.3%
same,"fracture rate, incident clinical fractures (rate given with hazard ratio)",[8]; placebo group 8.3%,4.8%

# Reference: patent US20230321199A1, “USES OF PTHrP ANALOGUE IN REDUCING FRACTURE RISK” (Radius Health, Inc., priority 2015, published 2023)
